How the values were obtained:
[1] = system: uterine eosinophil peroxidase; assay: Uterine eosinophil peroxidase (EPO) assay in ovariectomized rats; type: in vivo, rat; settings: OVX rats, daily for 4 days
Source text: (§1) Seventy-five day old female Sprague Dawley rats (weight range of 200 to 225 g) were obtained from Charles River Laboratories (Portage, Mich.). The animals were either bilaterally ovariectomized (OVX) or exposed to a sham surgical procedure at Charles River Laboratories, and then shipped after one week. Upon arrival, they were housed in metal hanging cages in groups of 3 or 4 per cage and had ad libitum access to food (calcium content approximately 0.5%) and water for one week. Room temperature was maintained at 22.2°±1.7° C. with a minimum relative humidity of 40%. The photoperiod in the room was 12 hours light and 12 hours dark.
(§2) Dosina Regimen/Tissue Collection. After a one week acclimation period (therefore, two weeks post-OVX) daily dosing with test compound was initiated. All compounds were administered subcutaneously at the dosages listed. Animals were dosed daily for 4 days. Following the dosing regimen animals were weighed and anesthetized with a ketamine: xylazine (2:1, [V:V] mixture and a blood sample was collected by cardiac puncture. The animals were then sacrificed by asphyxiation with CO2 and the uterus was removed through a midline incision and a wet weight was determined.
Uterine Eosinophil Peroxidase (EPO) Assay. The presence of eosinophils in the uterus is an indication of estrogenic activity of a compound. To maintain EPO activity, uteri were kept at 4° C. until time of enzymatic analysis. The uteri were then homogenized in 50 volumes of 50 mM Tris buffer (pH-8.0) containing 0.005% Triton X-100. Upon addition of 0.01% hydrogen peroxide and 10 mM o-phenylenediamine (final concentrations) in Tris buffer, increase in absorbance was monitored for one minute at 450 nm. The maximal velocity of a 15 second interval was determined over the initial linear portion of the reaction curve.

serum cholesterol = assay: Serum cholesterol in the ovariectomized rat post-menopausal model; type: in vivo; settings: OVX rats, daily for 4 days
Procedure: (§3) A post-menopausal model was used in which effects of different treatments upon circulating lipids were determined.
as §1, §2
Cholesterol Analysis. Blood samples were allowed to clot at room temperature for 2 hrs, and serum was obtained following centrifugation for 10 min at 3000 rpm. Serum cholesterol was determined using a Boehringer Mannheim Diagnostics high performance cholesterol assay. Briefly the cholesterol was oxidized to cholest-4-en-3-one and hydrogen peroxide. The hydrogen peroxide was then reacted with phenol and 4-aminophenazone in the presence of peroxidase to produce a p-quinone imine dye, which was read spectrophotometrically at 500 nm. Cholesterol concentration was then calculated against a standard curve. The entire assay was automated using a Biomek Automated workstation.

uterus = assay: Uterine wet weight in ovariectomized rats; type: in vivo, rat; settings: OVX rats, daily for 4 days, vs control OVX
Procedure: as §3, §1, §2

[2] = Systemic circulation and metabolites after oral raloxifene in humans; type: in vivo, human

Row | EPO Activity (Vmax for eosinophil peroxidase activity) ([1]; 0.013 mg/kg subcutaneously) [n OD/min] | EPO Activity (Vmax for eosinophil peroxidase activity) ([1]; 0.13 mg/kg subcutaneously) [n OD/min] | EPO Activity (Vmax for eosinophil peroxidase activity) ([1]; 1.3 mg/kg subcutaneously) [n OD/min] | % Uterine Wt. gain (uterus; 0.013 mg/kg subcutaneously) [%] | % Uterine Wt. gain (uterus; 0.13 mg/kg subcutaneously) [%] | % Uterine Wt. gain (uterus; 1.3 mg/kg subcutaneously) [%] | Metabolite status ([2]; human metabolite of raloxifene) | Concentrations of raloxifene in systemic circulation ([2]; administered orally to humans) | Structure (SMILES) | % Decrease of Serum Cholesterol (serum cholesterol; 0.013 mg/kg subcutaneously) [%] | % Decrease of Serum Cholesterol (serum cholesterol; 0.13 mg/kg subcutaneously) [%] | % Decrease of Serum Cholesterol (serum cholesterol; 1.3 mg/kg subcutaneously) [%]
1 | 2.0 | 2.3 | 3.5 | −21.3 | 14.2 | 24.1 | – | – | O=C(c1ccc(OCCN2CCCCC2)cc1)c1c(-c2ccc(O)cc2)sc2cc(O[C@@H]3OC(C(=O)O)[C@@H](O)[C@H](O)[C@H]3O)ccc12 (some centres unmarked) [Ia] | 21.7 | 43.8 | 44.5
2 | 3.2 | 3.1 | 4.4 | −7.7 | 14.5 | 36.1 | predominant human metabolite | – | O=C(c1ccc(OCCN2CCCCC2)cc1)c1c(-c2ccc(O[C@@H]3O[C@H](C(=O)O)[C@@H](O)[C@H](O)[C@H]3O)cc2)sc2cc(O)ccc12 [Ib] | 13.6 | 21.9 | 56.8
3 | – | – | – | – | – | – | – | absence of detectable concentrations | Cl.O=C(c1ccc(OCCN2CCCCC2)cc1)c1c(-c2ccc(O)cc2)sc2cc(O)ccc12 [raloxifene, 6-Hydroxy-2-(4-hydroxyphenyl)-3-[4-(2-piperidinoethoxy)benzoyl]benzo[b]thiophene, reference compound] | – | – | –

From patent publication US6723739B1, “Glucopyranoside benzothiophenes” (Eli Lilly and Company, priority 1994, dated 2004)
